# According to ChEMBL document CHEMBL2412995, “Design, synthesis and in vitro evaluation against human cancer cells of 5-methyl-5-styryl-2,5-dihydrofuran-2-ones, a new series of goniothalamin analogues” (2013):
# Assays:
# Type in all cases: functional
# HaCaT = assay: Antiproliferative activity against human HaCaT cells assessed as concentration required for total cell growth inhibition after 48 hrs by SRB assay
# PC-3 = assay: Antiproliferative activity against human PC3 cells assessed as concentration required for total cell growth inhibition after 48 hrs by SRB assay; conditions: PC-3, 48 h
# MCF7 = assay: Antiproliferative activity against human MCF7 cells assessed as concentration required for total cell growth inhibition after 48 hrs by SRB assay; conditions: MCF7, 48 h
# U-251 = assay: Antiproliferative activity against human U251 cells assessed as concentration required for total cell growth inhibition after 48 hrs by SRB assay; conditions: U-251, 48 h
# [1] = Antiproliferative activity against human NCI-ADR-RES cells assessed as concentration required for total cell growth inhibition after 48 hrs by SRB assay
# HT-29 = assay: Antiproliferative activity against human HT-29 cells assessed as concentration required for total cell growth inhibition after 48 hrs by SRB assay; conditions: HT-29, 48 h
# UACC-62 = assay: Antiproliferative activity against human UACC62 cells assessed as concentration required for total cell growth inhibition after 48 hrs by SRB assay; conditions: UACC-62, 48 h
# K562 = assay: Antiproliferative activity against human K562 cells assessed as concentration required for total cell growth inhibition after 48 hrs by SRB assay; conditions: K562, 48 h
# 786-0 = assay: Antiproliferative activity against human 786-0 cells assessed as concentration required for total cell growth inhibition after 48 hrs by SRB assay; conditions: 786-0, 48 h
Structure (SMILES),TGI (HaCaT) [µM],TGI (PC-3) [µM],TGI (MCF7) [µM],TGI (U-251) [µM],TGI [1] [µM],TGI (HT-29) [µM],TGI (UACC-62) [µM],TGI (K562) [µM],TGI (786-0) [µM]
COc1cccc(/C=C/C2(C)C=CC(=O)O2)c1 (stereo not given),5.7,31.6,25.3,37.6,48.6,17,55.8,> 1000,70
CC1(/C=C/c2ccccc2C(F)(F)F)C=CC(=O)O1 (stereo not given),12.7,17.9,13.5,14.1,12.2,15.8,17.7,573,27.9
CC1(/C=C/c2ccc(O)cc2)C=CC(=O)O1 (stereo not given),81.2,138,69.1,107,111,122,55.3,> 1000,143
O=C1C=CC[C@H](/C=C/c2ccccc2)O1 [GONIOTHALAMIN],13.4,9.6,11.2,9.8,14.5,10,17.4,927,13.9
COc1cc(/C=C/C2(C)C=CC(=O)O2)cc(OC)c1O (stereo not given),64.4,131,45.3,40.7,51.6,19.1,24.6,> 1000,108
COc1cc(/C=C/C2(C)C=CC(=O)O2)cc(OC)c1OC (stereo not given),175,131,56.6,125,123,390,178,> 1000,116
COc1cccc2c1C(=O)c1c(O)c3c(c(O)c1C2=O)C[C@@](O)(C(=O)CO)C[C@@H]3O[C@H]1C[C@H](N)[C@H](O)[C@H](C)O1 [DOXORUBICIN],0.4,2.5,4.9,2.1,10.3,3.6,0.2,45.5,1
CC1(/C=C/c2ccccc2O)C=CC(=O)O1 (stereo not given),57.3,112,46.2,70.9,78,31.3,92.5,> 1000,136
COc1ccc(/C=C/C2(C)C=CC(=O)O2)cc1OC (stereo not given),838,176,78.9,192,111,927,84.1,> 1000,22.9
COc1ccccc1/C=C/C1(C)C=CC(=O)O1 (stereo not given),30.8,34.2,27,41.1,64.5,30.8,31,860,35.4
COc1ccc(/C=C/C2(C)C=CC(=O)O2)cc1 (stereo not given),316,145,183,127,> 1000,92.9,147,> 1000,> 1000
COc1cc(OC)c(OC)cc1/C=C/C1(C)C=CC(=O)O1 (stereo not given),180,184,144,160,158,127,127,> 1000,205
COc1ccc(/C=C/C2(C)C=CC(=O)O2)c(OC)c1 (stereo not given),53.6,63.5,43.5,62.8,151,57.5,80.1,> 1000,108
CC1(/C=C/c2ccc(F)cc2)C=CC(=O)O1 (stereo not given),47.5,46.5,38.5,60.8,25.7,34.9,55.3,> 1000,101
CC1(/C=C/c2ccc(C(F)(F)F)cc2)C=CC(=O)O1 (stereo not given),12.1,13.1,20.4,15.7,9.4,12.3,15.5,652,34
C[C@]1(/C=C/c2ccccc2)CC=CC(=O)O1,50.7,31.7,48,27.5,107,41.1,37.2,> 1000,68.7
CC1(/C=C/c2ccccc2)C=CC(=O)O1 (stereo not given),119,86.9,95.3,89.8,414,123,97.2,> 1000,170
CC1(/C=C/c2cccc(O)c2)C=CC(=O)O1 (stereo not given),88.1,98.8,124,118,647,97.4,108,> 1000,196
COc1ccc(/C=C/C2(C)C=CC(=O)O2)c(OC)c1OC (stereo not given),217,90,110,87.2,349,133,71.5,> 1000,132
COc1cc(OC)c(/C=C/C2(C)C=CC(=O)O2)c(OC)c1 (stereo not given),458,239,102,193,229,127,208,> 1000,459
